Experimental data published in patent publication US5599974A, “Aldehydic agents for allosteric modification of hemoglobin” (Center for Innovative Technology, priority 1994, dated 1997).

Key:
human hemoglobin (HbA) = target: T1, human hemoglobin (HbA) (Homo sapiens, UniProt P69905); assay: Oxygen equilibrium studies of hemoglobin solutions (Hem-O-Scan oxygen dissociation curves); assay type: biochemical; details: hemoglobin solution; for P50 D (aver.) / ΔP50 (P50 D - P50 C): Hb 2.7 mM; for P50 D (aver.): compound 10 mM (approx. 4:1), 50 mM HEPES pH 7.4, incubated at 4° C. for two hours; for ΔP50 (P50 D - P50 C): compound 10 mM, 50 mM HEPES pH 7.4, positive = right shift
T1 construct: hemoglobin solution
Excerpt: In blood, hemoglobin is in equilibrium between two allosteric structures. In the "T" (for tense) state, hemoglobin is de-oxygenated. In the "R" (for relaxed) state, hemoglobin is oxygenated. An oxygen equilibrium curve can be scanned using well known equipment such as the Aminco™ Hem-o-scan to evaluate the affinity and degree of cooperativity (allosteric action) of hemoglobin. In the scan, the Y-axis plots the percent of hemoglobin oxygenation and the X-axis plots the partial pressure of oxygen in millimeters of mercury (mm Hg). If a horizontal line is drawn from the 50% oxygen saturation point to the scanned curve and a vertical line is drawn from the intersection point of the horizontal line with the curve to the partial pressure X-axis, a value commonly known as the P50 is determined. This is the pressure when the hemoglobin is 50% saturated with oxygen. By comparing the P50 value for treated hemoglobin to the P50 value for untreated normal adult human hemoglobin (HbA) under physiological conditions (i.e., 37° C., pH=7.4, and partial carbon dioxide pressure of 40 mm Hg), the degree of allosteric modification can be determined. When the P50 value for treated hemoglobin is lower than for HbA, a high oxygen affinity hemoglobin is indicated and the curve is said to be "left-shifted". Conversely, when the P50 value for treated hemoglobin is higher than for HbA, a low oxygen affinity hemoglobin is indicated and the curve is said to be "right-shifted".
In the oxygen equilibrium studies, the HbA was further purified by dialysis against pH 8.6. Tris buffer (50 mM, containing 40 mg EDTA/L) to remove any residual A2 hemoglobin. The pure HbA fraction was concentrated by using a Schleicher and Schuell colloidion bag apparatus, available from Schleicher and Schuell, Inc., with HEPES buffer (50 mM, pH 7.4) as the exchange buffer. The Hb concentration was determined by using the cyanmet method. The Hb concentration at this point was usually found to be around 35 g% (approximately 5.4 mM). Less than 5% methemoglobin was noted even after several days at 4° C. Oxygen dissociation curves were recorded on an AMINCO Hem-0-Scan oxygen dissociation analyzer available from Travenol Laboratories.
All compounds were dissolved in 50 mM HEPES buffer, pH 7.4, to give 20 mM of drug solution. The Hb (5.4 mM, in HEPES, pH 7.4) and the test compounds (20 mM) were mixed in 1:1 volume ratio (50μL of Hb+50μL of compound solution) to give final concentrations of 2.7 mM and 10mM, respectively (a molar ratio of test compound to hemoglobin of approximately 4:1). A control experiment was prepared by the addition of 50 μL of Hb to 50 μL of HEPES buffer. The mixtures were incubated at 4° C. for two hours before running the oxygen dissociation curves.

HbA = target: T2, HbA (Homo sapiens, UniProt P69905); assay: X-ray diffraction analysis of HbA/drug complexes (difference electron-density maps); assay type: binding; details: HbA tetramer/drug molar ratio 1:5 (TB17 1:10), Schiff base reduced, deoxygenated crystals
T2 construct: co-crystals with compounds
Description: Reaction of the drug compounds with HbA, crystallization and X-ray data collection of the HbA/drug complexes were performed according to the procedures of Wireko et al., Proc. Natl. Acad. Sci. USA, 1991, 88, 2209, which is herein incorporated by reference, with some slight modifications. Freshly prepared solutions of the synthesized compounds in potassium phosphate buffer were incubated at oxy HbA tetramer/drug molar ratios of 1:5 or 1:10 for at least 24 hours. Sodium cyanoborohydrie in phosphate buffer was added in 10- to 50-fold molar excess of HbA tetramer to reduce the Schiff's base adduct for at least 24 hours. The deoxygenated HbA/compound complexes were set up for crystallizations following the procedures described in Perutz et al., Crys. Growth, 1968, 2, 54, which is herein incorporated by reference, with some slight modifications. X-ray quality crystals for all complexes were obtained after three to seven days. Crystals of TB19 (discussed below) grown with HbA incubated and reduced under deoxygenated conditions was also used for data collection.
X-ray diffraction data for the MS2 complex (discussed below) was collected using a Rigaku AFC5R rotating anode diffractometer to a resolution of 4Å. All hk±1 reflections and their Friedel pairs were collected. One crystal, dimensions 0.3 to 1.2 mm was used for collection. Diffraction data for the rest of the complexes were collected with a Rigaku AFC5R rotating anode diffractometer equipped with an R-axis IIC image plate system, all to a resolution of 1.94A. Crystals of linear dimensions 0.2 to 0.5 mm were used. Data reduction, structure solution and calculation of Fourier difference electron-density maps were as described in Wireko et al., Proc. Natl. Acad. Sci. USA, 1991, 88, 2209.
Models of the compounds created with MMOD and minimized with MM2 force field were fitted to the electron-density by using FRODO on an EVANS and SUTHERLAND PS390 graphic station.
X-ray diffraction analyses were used to study several of the new drug complexes including MS1, MS2, TB8, TB10, TB17, TB19, TB32, TB36, TB62, and TB63. The difference electron-density maps of all complexes discussed are that of the HbA tetramer/drug molar ratio of 1:5, except TB17 which is 1:10. All drug molecules contain at least two functionalities, an aldehyde and a carboxylate, common to all of them. […] The only exception was MS2 where only one of the carboxylate oxygens was involved in the salt bridge interaction. The above binding site, which is common to all of the complexes, will be referred to as the α-cleft binding site. Some of the above drug compounds have additional functional groups which are also involved in additional interaction with other HbA residues, including hydrogen bonding, van der Waals interaction, and a second covalent bonding.
All complexes have two molecules of the drug compounds bound at the above-mentioned α-cleft site and are related by the two fold noncrystallographic axis. These sites are further noted as the α1-cleft site (Val-1α1 binding site), and the α2-cleft site (Val-1α2 binding site). In all complexes, the electron density at the α2-cleft site were slightly bigger and better defined than the electron density at the α1-cleft site. In addition to the binding at the α-cleft site, some of the drug compounds also bind to other secondary sites, including other sites in the α-cleft water cavity, the β-cleft water cavity located at Val-1β, and the Hb polymer contact site located near the residues His-116β and His-117β.

whole blood = assay: Whole-blood studies: effect on the oxygen affinity of whole blood; assay type: cell-based

Molecule | P50 D (aver.) (human hemoglobin (HbA)) | ΔP50 (P50 D - P50 C) (human hemoglobin (HbA)) | binding sites in HbA seen in the difference electron-density map (HbA) | P50 D (aver.) (whole blood; heparinized whole blood mixed 1:1 with test compound solution, equilibrated 1 hour at 37° C., P50 C 25.0) | direction of shift of the oxygen equilibrium curve (whole blood; whole blood) | ΔP50 D (whole blood; whole blood, 1 hour at 37° C., P50 D - P50 C) | direction of shift of the oxygen equilibrium curve (human hemoglobin (HbA))
O=Cc1ccc(OC(=O)C(=O)Oc2ccc(C=O)cc2C(=O)O)c(C(=O)O)c1 [TB77, bis(2-carboxy-4-formylphenyl)-oxalate] | 19.5 mm Hg | -1.5 mm Hg |  |  |  |  | 
O=Cc1ccc(OC(=O)/C=C/C(=O)Oc2ccc(C=O)cc2C(=O)O)c(C(=O)O)c1 [TB40, bis(2-carboxy-4-formylphenyl)-fumerate] | 14.0 mm Hg | -6.0 mm Hg |  |  |  |  | 
O=Cc1ccc(OCc2ccc(COc3ccc(C=O)cc3C(=O)O)cc2)c(C(=O)O)c1 [TB11, α,α'bis(2-carboxy-4-formylphenoxy)-p-xylene] | 24.0 mm Hg | 2.5 mm Hg |  |  |  |  | 
CC(=O)Oc1ccc(C=O)cc1C(=O)O [TB8, 5-formylaspirin] | 21.0 mm Hg | -1.0 mm Hg | binding of TB8 at the two symmetry-related α-cleft sites of Val-1α |  |  |  | 
O=Cc1ccc(OC(=O)c2ccc(C(=O)Oc3ccc(C=O)cc3C(=O)O)cc2)c(C(=O)O)c1 [TB56, bis(2-carboxy-4-formylphenyl)-terephthalate] | 16.0 mm Hg | -4.0 mm Hg |  |  |  |  | 
O=Cc1ccc(OCc2ccc(C(=O)O)cc2)c(C(=O)O)c1 [TB34, α-(2-carboxy-4-formylphenoxy)-p-toluic acid] | 14.0 mm Hg | -6.0 mm Hg |  |  |  |  | 
O=Cc1ccc(OCCOc2ccc(C=O)cc2C(=O)O)c(C(=O)O)c1 [TB63/41, 1,2-Bis(2-Carboxy-4-formylphenoxy)-ethane] | 46.0 mm Hg | 24.0 mm Hg | binding exclusively at the two symmetry-related α-cleft sites |  |  |  | 
O=Cc1ccc(OCCCCOc2ccc(C(=O)O)cc2)c(C(=O)O)c1 [TB35] | 25 mm Hg | 4 mm Hg |  |  |  |  | 
O=Cc1ccc(OCCCCCOc2ccc(C=O)cc2C(=O)O)c(C(=O)O)c1 [TB57, 1,5-bis(2-carboxy-4-formylphenoxy)-pentane] | 33.0 mm Hg | 11.0 mm Hg |  |  |  |  | 
O=Cc1ccc(OCc2cccc(COc3ccc(C=O)cc3C(=O)O)c2)c(C(=O)O)c1 [TB10, α,α'bis(2-carboxy-4-formylphenoxy)-m-xylene] | 26.0 mm Hg | 4.5 mm Hg |  |  |  |  | 
O=Cc1ccc(OCCCCCCCCOc2ccc(C=O)cc2C(=O)O)c(C(=O)O)c1 [TB58, 1,8-bis(2-carboxy-4-formylphenoxy)-octane] | 37.0 mm Hg | 15.0 mm Hg |  |  |  |  | 
O=Cc1ccc(OCOc2ccc(C=O)cc2C(=O)O)c(C(=O)O)c1 [TB62/45, bis(2-carboxy-4-formylphenoxy)-methane] | 51.0 mm Hg | 29.0 mm Hg | binding exclusively at the two symmetry-related α-cleft sites |  |  |  | 
O=Cc1ccc(OCCCCCCOc2ccc(C=O)cc2C(=O)O)c(C(=O)O)c1 [TB42, 1,6-bis(2-carboxy-4-formylphenoxy)-hexane] | 39.0 mm Hg | 17.0 mm Hg |  |  |  |  | 
O=Cc1ccc(OCc2ccccc2COc2ccc(C=O)cc2C(=O)O)c(C(=O)O)c1 [TB5, α, α'-bis(2-carboxy-4-formylphenoxy)-o-xylene] | 31.0 mm Hg | 9.5 mm Hg |  |  |  |  | 
O=Cc1ccc(O)c(C(=O)O)c1 [MS1, 5-formylsalicyclic acid] | 21.0 mm Hg | 1.0 mm Hg | four binding sites for MS1 in the central water cavity of HbA |  |  |  | 
2-phenylethyloxy-5-formylbenzoic acid [TB32] | 18.0 mm Hg | -2.0 mm Hg |  |  |  |  | 
CC(CCCOc1ccc(C=O)cc1C(=O)O)Oc1ccc(C=O)cc1C(=O)O (stereo not drawn) [TB72, 1,4-bis(2-carboxy-4-formylphenoxy)-pentane] | 30.0 mm Hg | 8.0 mm Hg |  |  |  |  | 
O=Cc1ccc(OC(=O)CCC(=O)Oc2ccc(C=O)cc2C(=O)O)c(C(=O)O)c1 [TB80, bis(2-carboxy-4-formylphenyl)-succinate] | 14.5 mm Hg | -5.5 mm Hg |  |  |  |  | 
O=Cc1ccc(OCC=CCOc2ccc(C=O)cc2C(=O)O)c(C(=O)O)c1 [TB18, 1,4-bis(2-carboxy-4-formylphenoxy)-2-butene] | 40.0 mm Hg | 18.0 mm Hg |  | 19.0 mm Hg | left shift | -6.0 mm Hg | right shift
O=Cc1ccc(C(=O)O)cc1 [MS2, 4-carboxybenzaldehyde] | 21.0 mm Hg | 2.0 mm Hg | binding exclusively at the two symmetry-related α-cleft sites |  |  |  | 
O=Cc1ccc(OCCCOc2ccc(C=O)cc2C(=O)O)c(C(=O)O)c1 [TB36, 1,3-bis(2-carboxy-4-formylphenoxy)-propane] | 44.0 mm Hg | 22.0 mm Hg | binding exclusively at the two symmetry-related α-cleft sites |  |  |  | 
O=Cc1ccc(OCCCCCCCCCCOc2ccc(C=O)cc2C(=O)O)c(C(=O)O)c1 [TB73, 1,10-bis(2-carboxy-4-formylphenoxy)-decane] | 33.0 mm Hg | 11.0 mm Hg |  |  |  |  | 
